Results: US10100058B2, “Fused heterocyclic compounds as CaM kinase inhibitors” (Gilead Sciences, Inc., priority 2016, dated 2018)

Biological target: recombinant CaMKIIδ (Homo sapiens (Human), UniProt Q13557)
Assay: CaMKIIδ biochemical assay (HTRF)
Conditions: 10 pM CaMKIIδ, 110 nM calmodulin, 12 μM ATP, 1 hour; read-out: CAMKIID-HTRF-384V2 (IC50 - nM)
Procedure: CaMKIIδ Biochemical Assay
The biochemical activity of recombinant CaMKIIδ was measured by monitoring the phosphorylation of a target peptide using Homogenous Time Resolved Fluorescence (HTRF) technology from CisBio Bioassays.

| SMILES | IC50 [nM] |
| --- | --- |
| CCN(CC)[C@@H](C)CNC(=O)c1cc(-c2cnn3ccc(-c4ccc(F)s4)nc23)nc(N2CC[C@H]2C(=O)NC)c1 [Example 361, N—((S)-2-(diethylamino)propyl)-2-(5-(5-fluorothiophen-2-yl)pyrazolo[1,5-a]pyrimidin-3-yl)-6-((S)-2-(methylcarbamoyl)azetidin-1-yl)isonicotinamide] | 0.15 |
| CCN(CC)[C@@H](C)CNC(=O)c1cncc(-c2cnn3ccc(-c4cccs4)nc23)c1 [Example 362, (S)—N-(2-(diethylamino)propyl)-5-(5-(thiophen-2-yl)pyrazolo[1,5-a]pyrimidin-3-yl)nicotinamide] | 0.52 |
| CCN(CC)[C@@H](C)CNC(=O)c1cc(-c2cnn3ccc(-c4cccs4)nc23)ccn1 [Example 363, (S)—N-(2-(diethylamino)propyl)-4-(5-(thiophen-2-yl)pyrazolo[1,5-a]pyrimidin-3-yl)picolinamide] | 1.3 |
| CCN(CC)[C@@H](C)CNC(=O)c1cccc(-c2cnn3ccc(-c4cccs4)nc23)n1 [Example 364, (S)—N-(2-(diethylamino)propyl)-6-(5-(thiophen-2-yl)pyrazolo[1,5-a]pyrimidin-3-yl)picolinamide] | 715 |
